ChEMBL document CHEMBL5338739, “Discovery of Dual Lysine Methyltransferase G9a and EZH2 Inhibitors with In Vivo Efficacy against Malignant Rhabdoid Tumor” (J Med Chem, 2023)
Calls of active or inactive are those of the source. The rule behind the calls is not given here.

How the values were obtained:
[1] = target: T1, Histone-lysine N-methyltransferase EHMT2 (Homo sapiens, UniProt Q96KQ7); assay: Inhibition of human recombinant EHMT2 G9a using SAM as substrate incubated for 1 hr by microplate luminescence based HMT assay
T1 sequence (Q96KQ7 whole entry): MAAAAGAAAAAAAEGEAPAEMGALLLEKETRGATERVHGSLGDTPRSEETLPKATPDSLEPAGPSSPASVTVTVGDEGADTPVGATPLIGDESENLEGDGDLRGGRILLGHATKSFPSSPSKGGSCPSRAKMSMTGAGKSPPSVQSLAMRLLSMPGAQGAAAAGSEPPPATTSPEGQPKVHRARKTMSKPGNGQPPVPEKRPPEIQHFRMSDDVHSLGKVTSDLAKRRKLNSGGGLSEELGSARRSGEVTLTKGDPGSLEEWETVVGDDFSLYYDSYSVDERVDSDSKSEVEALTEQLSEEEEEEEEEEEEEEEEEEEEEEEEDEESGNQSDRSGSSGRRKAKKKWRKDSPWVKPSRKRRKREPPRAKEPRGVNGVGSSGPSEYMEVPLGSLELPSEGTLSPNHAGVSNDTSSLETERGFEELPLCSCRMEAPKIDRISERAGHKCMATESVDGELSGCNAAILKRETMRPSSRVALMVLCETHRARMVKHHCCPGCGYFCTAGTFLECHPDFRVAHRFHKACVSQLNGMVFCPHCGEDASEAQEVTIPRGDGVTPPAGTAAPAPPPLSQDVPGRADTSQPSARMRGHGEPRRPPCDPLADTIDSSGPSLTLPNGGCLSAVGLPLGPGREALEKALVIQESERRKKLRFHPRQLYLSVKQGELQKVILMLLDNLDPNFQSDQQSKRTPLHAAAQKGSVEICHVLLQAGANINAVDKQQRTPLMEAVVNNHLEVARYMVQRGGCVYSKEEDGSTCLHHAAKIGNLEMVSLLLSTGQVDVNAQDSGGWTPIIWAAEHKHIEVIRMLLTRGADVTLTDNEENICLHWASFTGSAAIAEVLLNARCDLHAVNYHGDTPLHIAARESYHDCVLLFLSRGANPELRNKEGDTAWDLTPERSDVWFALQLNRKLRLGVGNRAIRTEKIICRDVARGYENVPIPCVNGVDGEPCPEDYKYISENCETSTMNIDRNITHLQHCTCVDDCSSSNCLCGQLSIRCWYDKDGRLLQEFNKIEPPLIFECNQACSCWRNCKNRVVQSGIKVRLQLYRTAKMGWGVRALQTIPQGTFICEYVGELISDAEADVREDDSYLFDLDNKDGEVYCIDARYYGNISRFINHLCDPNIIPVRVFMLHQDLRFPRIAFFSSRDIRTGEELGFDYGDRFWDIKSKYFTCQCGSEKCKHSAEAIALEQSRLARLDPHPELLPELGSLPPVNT

[2] = target: Histone-lysine N-methyltransferase SETD2 (Homo sapiens) (UniProt Q9BYW2); assay: Inhibition of SETD2 (unknown origin) using SAM as substrate at 10 uM by time-resolved fluorescence assay relative to control
[3] = target: T2, Histone-lysine N-methyltransferase EZH2 (Homo sapiens, UniProt Q15910); assay: Inhibition of human EZH2 using SAM as substrate incubated for 1 hr by microplate luminescence based HMT assay
Target sequence in this assay (Q15910 whole entry): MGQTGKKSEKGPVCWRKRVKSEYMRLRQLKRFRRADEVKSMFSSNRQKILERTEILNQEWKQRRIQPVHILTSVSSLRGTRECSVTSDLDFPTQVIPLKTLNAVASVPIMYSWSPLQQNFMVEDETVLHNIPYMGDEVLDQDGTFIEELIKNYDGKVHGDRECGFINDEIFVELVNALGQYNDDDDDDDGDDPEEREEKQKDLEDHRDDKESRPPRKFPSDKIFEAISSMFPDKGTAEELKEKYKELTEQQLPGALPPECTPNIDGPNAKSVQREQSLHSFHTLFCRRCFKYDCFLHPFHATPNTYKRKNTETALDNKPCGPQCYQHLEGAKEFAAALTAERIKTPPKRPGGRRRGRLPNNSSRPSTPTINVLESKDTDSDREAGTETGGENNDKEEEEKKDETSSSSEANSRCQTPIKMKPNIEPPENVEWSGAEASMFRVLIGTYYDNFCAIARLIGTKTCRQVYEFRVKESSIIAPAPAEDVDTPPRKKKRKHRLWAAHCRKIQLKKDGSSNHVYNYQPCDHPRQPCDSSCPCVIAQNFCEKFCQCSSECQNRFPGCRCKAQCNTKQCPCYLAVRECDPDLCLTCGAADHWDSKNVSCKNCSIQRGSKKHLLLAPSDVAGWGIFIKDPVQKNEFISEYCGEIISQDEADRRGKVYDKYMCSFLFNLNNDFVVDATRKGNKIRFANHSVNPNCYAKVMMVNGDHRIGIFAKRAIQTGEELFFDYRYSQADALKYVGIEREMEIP

[4] = Cmax in Sprague-Dawley rat at 10 mg/kg, iv administered for 12 hrs by HPLC analysis; type: ADME, organism-based; parameters: dose 10 mg/kg, time 12 hrs, route iv; conditions: in vivo
[5] = Apparent volume of distribution in Sprague-Dawley rat at 10 mg/kg, iv administered for 12 hrs by HPLC analysis; type: ADME, organism-based; conditions: in vivo, read-out: Vc
[6] = Tmax in Sprague-Dawley rat at 30 mg/kg, po administered for 24 hrs by HPLC analysis; type: ADME, organism-based; conditions: in vivo
[7] = Toxicity in BALB/c nude mouse xenografted with human RD cells assessed as mortality at 10 to 20 mg/kg, ip administered for 5 consecutive days followed by 2 rest days for 3 weeks; type: organism-based; conditions: in vivo, 504 h, dose 10-20 mg/kg
RD [8] = assay: Downregulation of H3K79me1 expression in human RD cells at 5 uM incubated for 6 days by immunoblotting analysis; type: functional, cell-based; conditions: time 6.0 day
[9] = AUC (0 to 24 hrs) in Sprague-Dawley rat at 10 mg/kg, iv administered for 12 hrs by HPLC analysis; type: ADME, organism-based; parameters: dose 10 mg/kg, time 12 hrs, route iv; conditions: in vivo
RD [10] = assay: Antitumor activity against EZH2 and G9a knockdown human RD cells xenografted in BALB/c nude mouse assessed as tumor growth inhibition at 20 mg/kg, ip administered for 15 days; type: functional, organism-based; conditions: time 15.0 day
RD [11] = assay: Downregulation of H3K9me2 expression in human RD cells at 5 uM incubated for 6 days by Western blotting analysis; type: functional, cell-based; conditions: time 6.0 day
SW982 [12] = assay: Antiproliferative activity against human SW982 cells assessed as reduction in clone formation rate at 5 uM for 1 to 2 weeks with fresh medium replacement for every 2 to 3 days by crystal violet staining based microscopic analysis; type: functional, cell-based; conditions: time 1-2 weeks
[13] = target: T3, Histone-lysine N-methyltransferase EHMT2 (Homo sapiens) (UniProt Q96KQ7); assay: Binding affinity to recombinant EHMT2 G9a in human RD cells assessed as decrease in […] incubated for 1 hr by DARTS analysis; type: cell-based; conditions: dose 5-20 µM
T3 sequence (whole entry): T1 sequence (Q96KQ7 whole entry)

[14] = Toxicity in BALB/c nude mouse xenografted with human RD cells assessed as effect on lung viscera index at 10 to 20 mg/kg, ip administered for 5 consecutive days followed by 2 rest days for 3 weeks; type: organism-based; conditions: in vivo, 504 h, dose 10-20 mg/kg
[15] = target: T3, Histone-lysine N-methyltransferase EHMT2 (Homo sapiens); assay: Binding affinity to recombinant EHMT2 G9a in human RD cells assessed as increase in protein thermal stability at 5 uM incubated for 4 hrs by CETSA based Western blot analysis; type: cell-based
RD [16] = assay: Antitumor activity against human RD cells xenografted in BALB/c nude mouse assessed as suppression of tumor growth administered intraperitoneally for 5 consecutive days followed by 2 rest days for 3 weeks; conditions: dose 10-20 mg/kg, route ip
Mus musculus = assay: Downregulation of H3K27me3 expression in tumor tissue of BALB/c nude mouse xenografted with human RD cells at 20 mg/kg, ip administered for 5 consecutive days followed by 2 rest days for 3 weeks by Western blotting analysis; type: functional, organism-based
SW982 [17] = assay: Cytotoxicity against human SW982 cells assessed as reduction in cell viability incubated for 72 hrs by MTT assay; type: functional
RD [18] = assay: Antiproliferative activity against human RD cells assessed as reduction in clone formation rate at 5 uM for 1 to 2 weeks with fresh medium replacement for every 2 to 3 days by crystal violet staining based microscopic analysis; type: functional, cell-based; conditions: time 1-2 weeks
[19] = target: Histone-lysine N-methyltransferase, H3 lysine-79 specific (Homo sapiens) (UniProt Q8TEK3); assay: Binding affinity to DOT1L in human RD cells assessed as increase in protein thermal stability at 5 uM incubated for 4 hrs by CETSA based Western blot analysis; type: cell-based
[20] = Clearance in Sprague-Dawley rat at 30 mg/kg, po administered for 24 hrs by HPLC analysis; type: ADME, organism-based; conditions: in vivo
RD [21] = assay: Downregulation of H3K36me2 expression in human RD cells at 5 uM incubated for 6 days by immunoblotting analysis; type: functional, cell-based; conditions: time 6.0 day
[22] = target: T2, Histone-lysine N-methyltransferase EZH2; assay: Binding affinity to EZH2 in human RD cells assessed as increase in protein thermal stability at 5 uM incubated for 4 hrs by CETSA based Western blot analysis; type: cell-based
Target sequence in this assay (Q15910 whole entry, looked up): as the sequence (Q15910 whole entry) above

Chain of Histone-lysine N-methyltransferase, H3 lysine-79 specific (Homo sapiens) (Q8TEK3 whole entry, looked up): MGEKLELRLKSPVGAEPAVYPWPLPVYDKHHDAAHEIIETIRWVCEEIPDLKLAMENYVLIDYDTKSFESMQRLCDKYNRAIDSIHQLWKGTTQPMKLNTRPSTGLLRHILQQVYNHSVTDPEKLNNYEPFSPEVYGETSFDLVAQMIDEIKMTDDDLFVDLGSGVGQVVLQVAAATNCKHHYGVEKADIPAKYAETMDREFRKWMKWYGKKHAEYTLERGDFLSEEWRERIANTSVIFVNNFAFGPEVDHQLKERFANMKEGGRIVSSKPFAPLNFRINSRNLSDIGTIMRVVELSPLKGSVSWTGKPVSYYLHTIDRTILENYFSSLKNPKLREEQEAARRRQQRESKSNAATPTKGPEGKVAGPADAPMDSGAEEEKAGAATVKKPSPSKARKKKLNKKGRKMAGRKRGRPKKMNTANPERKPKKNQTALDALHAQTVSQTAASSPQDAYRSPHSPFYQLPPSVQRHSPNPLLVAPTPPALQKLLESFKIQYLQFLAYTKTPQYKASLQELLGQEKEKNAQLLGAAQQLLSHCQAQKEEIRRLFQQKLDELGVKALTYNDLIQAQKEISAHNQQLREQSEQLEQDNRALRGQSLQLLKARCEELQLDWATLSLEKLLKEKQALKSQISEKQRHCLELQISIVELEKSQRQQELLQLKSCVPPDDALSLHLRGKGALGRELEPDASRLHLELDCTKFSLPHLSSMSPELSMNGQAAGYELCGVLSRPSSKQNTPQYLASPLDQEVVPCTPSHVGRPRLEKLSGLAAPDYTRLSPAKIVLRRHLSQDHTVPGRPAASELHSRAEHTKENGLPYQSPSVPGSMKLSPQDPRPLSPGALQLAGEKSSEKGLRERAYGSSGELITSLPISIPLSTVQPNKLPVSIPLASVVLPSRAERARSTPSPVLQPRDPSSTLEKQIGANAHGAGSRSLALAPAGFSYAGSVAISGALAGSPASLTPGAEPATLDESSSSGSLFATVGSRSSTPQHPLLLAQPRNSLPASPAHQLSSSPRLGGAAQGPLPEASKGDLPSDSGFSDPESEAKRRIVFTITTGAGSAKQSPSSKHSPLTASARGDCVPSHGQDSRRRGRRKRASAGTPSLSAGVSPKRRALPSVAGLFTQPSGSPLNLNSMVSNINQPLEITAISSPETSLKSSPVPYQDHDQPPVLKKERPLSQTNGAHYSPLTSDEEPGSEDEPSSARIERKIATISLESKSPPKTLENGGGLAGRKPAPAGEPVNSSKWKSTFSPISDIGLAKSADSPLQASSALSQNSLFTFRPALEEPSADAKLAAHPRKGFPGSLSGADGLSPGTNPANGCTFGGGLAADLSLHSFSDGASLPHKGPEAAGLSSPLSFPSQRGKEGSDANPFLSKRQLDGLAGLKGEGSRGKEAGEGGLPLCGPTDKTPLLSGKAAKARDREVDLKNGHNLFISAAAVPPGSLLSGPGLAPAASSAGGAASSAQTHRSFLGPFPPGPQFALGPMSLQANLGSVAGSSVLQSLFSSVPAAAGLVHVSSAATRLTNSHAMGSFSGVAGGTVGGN
Chain of Histone-lysine N-methyltransferase SETD2 (Homo sapiens) (Q9BYW2 whole entry): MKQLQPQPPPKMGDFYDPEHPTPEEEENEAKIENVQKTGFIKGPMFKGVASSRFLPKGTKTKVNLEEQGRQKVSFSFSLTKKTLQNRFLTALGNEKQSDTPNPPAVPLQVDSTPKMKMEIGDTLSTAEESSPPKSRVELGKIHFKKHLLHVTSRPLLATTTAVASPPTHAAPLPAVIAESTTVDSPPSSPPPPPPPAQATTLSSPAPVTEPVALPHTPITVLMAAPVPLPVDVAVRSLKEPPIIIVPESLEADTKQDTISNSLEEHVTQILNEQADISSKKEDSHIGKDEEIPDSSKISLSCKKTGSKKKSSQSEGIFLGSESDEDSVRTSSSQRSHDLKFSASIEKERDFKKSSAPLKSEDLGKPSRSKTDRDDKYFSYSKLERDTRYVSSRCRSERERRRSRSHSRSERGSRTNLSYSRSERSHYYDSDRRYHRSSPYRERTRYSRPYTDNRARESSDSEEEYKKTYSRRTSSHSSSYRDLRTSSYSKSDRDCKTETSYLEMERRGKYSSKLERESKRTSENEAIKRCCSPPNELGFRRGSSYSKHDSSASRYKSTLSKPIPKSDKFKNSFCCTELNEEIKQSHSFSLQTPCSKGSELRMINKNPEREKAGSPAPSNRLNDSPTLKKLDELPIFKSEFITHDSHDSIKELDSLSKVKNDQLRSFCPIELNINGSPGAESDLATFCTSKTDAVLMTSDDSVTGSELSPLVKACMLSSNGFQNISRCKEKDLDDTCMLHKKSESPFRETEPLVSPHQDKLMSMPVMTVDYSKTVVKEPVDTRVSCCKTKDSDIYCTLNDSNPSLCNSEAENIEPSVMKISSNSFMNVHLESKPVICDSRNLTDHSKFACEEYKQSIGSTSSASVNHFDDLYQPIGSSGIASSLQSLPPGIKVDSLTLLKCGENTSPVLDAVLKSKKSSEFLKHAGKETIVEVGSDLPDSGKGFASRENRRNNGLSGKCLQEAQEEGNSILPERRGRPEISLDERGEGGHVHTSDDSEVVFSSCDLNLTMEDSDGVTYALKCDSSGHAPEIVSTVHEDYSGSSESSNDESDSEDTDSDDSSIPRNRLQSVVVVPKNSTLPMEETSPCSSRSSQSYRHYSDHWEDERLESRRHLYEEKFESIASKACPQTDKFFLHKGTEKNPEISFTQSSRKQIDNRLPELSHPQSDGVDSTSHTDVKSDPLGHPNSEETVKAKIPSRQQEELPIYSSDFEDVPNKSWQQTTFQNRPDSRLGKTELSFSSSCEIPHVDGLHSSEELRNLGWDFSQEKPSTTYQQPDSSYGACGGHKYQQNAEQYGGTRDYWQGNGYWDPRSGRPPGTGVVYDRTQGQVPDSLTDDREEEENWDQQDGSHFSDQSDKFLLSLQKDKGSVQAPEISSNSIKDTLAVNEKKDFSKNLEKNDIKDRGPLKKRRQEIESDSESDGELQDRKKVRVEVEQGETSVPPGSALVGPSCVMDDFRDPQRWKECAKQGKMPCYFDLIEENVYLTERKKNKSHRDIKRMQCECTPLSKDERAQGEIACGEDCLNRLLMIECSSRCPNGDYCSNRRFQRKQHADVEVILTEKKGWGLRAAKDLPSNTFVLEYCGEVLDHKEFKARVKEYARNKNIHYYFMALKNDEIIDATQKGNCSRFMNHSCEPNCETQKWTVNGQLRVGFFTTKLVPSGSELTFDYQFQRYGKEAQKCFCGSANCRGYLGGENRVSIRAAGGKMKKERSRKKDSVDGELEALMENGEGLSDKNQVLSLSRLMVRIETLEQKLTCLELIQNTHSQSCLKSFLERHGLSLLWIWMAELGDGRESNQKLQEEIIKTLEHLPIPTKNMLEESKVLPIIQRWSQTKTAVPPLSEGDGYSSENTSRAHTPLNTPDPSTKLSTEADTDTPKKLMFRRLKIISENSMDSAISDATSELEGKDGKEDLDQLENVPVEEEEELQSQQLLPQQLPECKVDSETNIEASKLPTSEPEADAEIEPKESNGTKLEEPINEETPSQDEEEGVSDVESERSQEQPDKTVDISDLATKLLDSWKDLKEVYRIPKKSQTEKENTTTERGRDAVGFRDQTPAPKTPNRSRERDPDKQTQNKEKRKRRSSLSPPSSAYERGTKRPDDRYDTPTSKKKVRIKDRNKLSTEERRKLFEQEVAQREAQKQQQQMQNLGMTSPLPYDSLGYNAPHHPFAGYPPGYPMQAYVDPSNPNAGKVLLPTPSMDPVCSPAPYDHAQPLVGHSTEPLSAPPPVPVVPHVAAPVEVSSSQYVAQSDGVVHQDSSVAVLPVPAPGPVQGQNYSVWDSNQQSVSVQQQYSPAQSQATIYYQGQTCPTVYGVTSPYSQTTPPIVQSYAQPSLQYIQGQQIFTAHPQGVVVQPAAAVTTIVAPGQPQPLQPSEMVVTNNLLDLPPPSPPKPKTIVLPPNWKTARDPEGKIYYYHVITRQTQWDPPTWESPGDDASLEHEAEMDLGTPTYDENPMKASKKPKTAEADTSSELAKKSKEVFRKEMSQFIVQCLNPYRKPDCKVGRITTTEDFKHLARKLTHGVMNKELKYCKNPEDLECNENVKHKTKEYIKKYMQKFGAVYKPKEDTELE

SMILES: COc1cc2c(NCc3c(C)cc(C)[nH]c3=O)nc(N3CCC(F)(F)CC3)nc2cc1OCCCN1CCCC1
- IC50 [1]: 2.9 nM
- inhibition [2]: -5.18%
- IC50 [3]: 4.35 nM
- Cmax [4]: 1380 ng/mL
- Vd [5]: 4.54 L/kg
- Tmax [6]: 41.4 min
- Activity [7]: Non-Toxic
- Activity (RD [8]): inactive
- AUC(0-t) at 12 h [9]: 1940 ng·h/mL
- inhibition (RD [10]): inactive
- Activity (RD [11]): Active
- Activity (SW982 [12]): Active
- Activity [13]: Dose-Dependent Effect
- Activity [14]: Non-Toxic
- Activity [15]: Active
- Activity (RD [16]): Dose-Dependent Effect
- Activity (Mus musculus): Active
- CC50 (SW982 [17]): 19900 nM
- Activity (RD [18]): Active
- Activity [19]: inactive
- CL/F [20]: 59.7 mL/min/kg
- Activity (RD [21]): inactive
- Activity [22]: Active
